Active and inactive are the calls of the source. The calls are words filed in the database; no cut-off is given here.
Experiments:
[1] = system: Rattus norvegicus; assay: Anti-diabetic activity in fructose-treated male Wistar rat assessed as decrease in MDA level in liver at 10 mg/kg, po administered for 15 days (reference value: 294.65 +/-11.78 nM/mg ); type: functional; conditions: time 15 day
[2] = Retention time of the compound by HPLC analysis; type: physicochemical
[3] = system: Rattus norvegicus; assay: Anti-diabetic activity in fructose-treated male Wistar rat assessed as decrease in triglycerides level at 10 mg/kg, po administered for 15 days (reference value: 140.03 +/-3.55 mg/dL); type: functional; conditions: time 15 day
[4] = system: Rattus norvegicus; assay: Anti-diabetic activity in fructose-treated male Wistar rat assessed as increase in CAT level in liver at 10 mg/kg, po administered for 15 days (reference value: 27.65 +/-1.02 U/min); type: functional; conditions: time 15 day
[5] = AUC (0 to infinity) in male Wistar rat at 10 mg/kg, po measured upto 24 hrs; type: ADME, organism-based; conditions: in vivo
[6] = system: Rattus norvegicus; assay: Anti-diabetic activity in fructose-treated male Wistar rat assessed as decrease in SGOT level at 10 mg/kg, po administered for 15 days (reference value: […]); type: functional; conditions: time 15 day
[7] = system: Rattus norvegicus; assay: Anti-diabetic activity in fructose-treated male Wistar rat assessed as decrease in insulin level at 10 mg/kg, po administered for 15 days by insulin tolerance test; type: functional, organism-based; conditions: time 15.0 day
[8] = Tmax in male Wistar rat at 10 mg/kg, po measured upto 24 hrs; type: ADME, organism-based; conditions: in vivo
[9] = Cmax in male Wistar rat at 10 mg/kg, po measured upto 24 hrs; type: ADME, organism-based; conditions: in vivo
[10] = Drug recovery in rat plasma at 50 mg/kg, po by HPLC analysis; type: ADME, organism-based; conditions: in vivo
[11] = system: Rattus norvegicus; assay: Anti-diabetic activity in fructose-treated male Wistar rat assessed as increase in HDL level at 10 mg/kg, po administered for 15 days (reference value: 25.35 +/-2.03 mg/dL); type: functional; conditions: time 15 day
[12] = system: Rattus norvegicus; assay: Anti-diabetic activity in fructose-treated male Wistar rat assessed as increase in total cholesterol level at 10 mg/kg, po administered for 15 days (reference value: 93.68 +/-1.68 mg/dL); type: functional; conditions: time 15 day
[13] = system: Rattus norvegicus; assay: Anti-diabetic activity in fructose-treated male Wistar rat assessed as increase in GSH level in liver at 10 mg/kg, po administered for 15 days (reference value: 39.98 +/-0.86 nM/mg ); type: functional; conditions: time 15 day
[14] = system: Rattus norvegicus; assay: Anti-diabetic activity in fructose-treated male Wistar rat assessed as decrease in fasting blood glucose level at 10 mg/kg, po administered for 15 days; type: functional, organism-based; conditions: time 15.0 day
[15] = system: L6; assay: Induction of glucose uptake in rat L6 cells incubated for 24 hrs by GOD-POD technique; type: functional; parameters: concentration or dose not given beside the values
[16] = AUC (0 to t) in male Wistar rat at 10 mg/kg, po measured upto 24 hrs; type: ADME, organism-based; conditions: in vivo
[17] = system: Rattus norvegicus; assay: Anti-diabetic activity in fructose-treated male Wistar rat assessed as increase in glycogen content in liver at 10 mg/kg, po administered for 15 days; type: functional, organism-based; conditions: time 15.0 day
[18] = system: Rattus norvegicus; assay: Anti-diabetic activity in fructose-treated male Wistar rat assessed as change in HOMO-IR level at 10 mg/kg, po administered for 15 days; type: functional, organism-based; conditions: time 15.0 day
[19] = system: Rattus norvegicus; assay: Anti-diabetic activity in fructose-treated male Wistar rat assessed as increase in SOD level in liver at 10 mg/kg, po administered for 15 days (reference value: 13.25 +/-1.35 U/ml); type: functional; conditions: time 15 day
[20] = system: Rattus norvegicus; assay: Anti-diabetic activity in fructose-treated male Wistar rat assessed as increase in LDL level at 10 mg/kg, po administered for 15 days (reference value: 40.32 +/-1.08 mg/dL); type: functional; conditions: time 15 day
[21] = Half life in male Wistar rat at 10 mg/kg, po measured upto 24 hrs; type: ADME, organism-based; conditions: in vivo
[22] = system: Rattus norvegicus; assay: Anti-diabetic activity in fructose-treated male Wistar rat assessed as decrease in SGPT level at 10 mg/kg, po administered for 15 days (reference value: […]); type: functional; conditions: time 15 day
[23] = Drug recovery in rat plasma at 100 mg/kg, po by HPLC analysis; type: ADME, organism-based; conditions: in vivo
[24] = Acute toxicity in male Wistar rat assessed as body weight gain at 10 mg/kg, po administered for 15 days; type: organism-based; conditions: in vivo, 360 h, time 15 day
[25] = system: Rattus norvegicus; assay: Anti-diabetic activity in fructose-treated male Wistar rat assessed as decrease in VLDL level at 10 mg/kg, po administered for 15 days (reference value: 28 +/-0.28 mg/dL); type: functional; conditions: time 15 day
[26] = system: Rattus norvegicus; assay: Anti-diabetic activity in fructose-treated male Wistar rat assessed as increase in glycogen content in skeletal muscle at 10 mg/kg, po administered for 15 days; type: functional, organism-based; conditions: time 15.0 day
[27] = system: Rattus norvegicus; assay: Anti-diabetic activity in Wistar rat Diaphragm assessed as […] at 10 mg/kg, po administered for 15 days; type: functional, organism-based; conditions: time 15.0 day
[28] = Drug recovery in rat plasma at 150 mg/kg, po by HPLC analysis; type: ADME, organism-based; conditions: in vivo
[29] = system: Rattus norvegicus; assay: Anti-diabetic activity in fructose-treated male Wistar rat assessed as decrease in HOMO-IR level at 10 mg/kg, po administered for 15 days; type: functional, organism-based; conditions: time 15.0 day

CCc1ccc(CCOc2ccc(CC3SC(=O)NC3=O)cc2)nc1 (centres undefined) [PIOGLITAZONE]
Activity [1]: 178.35 nM/mg | Retention_time [2]: 2.4 min | Activity [3]: 63.57 mg/dL | Activity [4]: 55.63 U/min | AUC(0-inf) [5]: 43600 ng·h/mL | Activity [6]: 32.45 U/L | Activity [7]: Active | Tmax [8]: 2.69 h | Cmax [9]: 3130 ng/mL | Drug recovery [10]: 97.1% | Activity [11]: 60.72 mg/dL | Activity [12]: 122.79 mg/dL | Activity [13]: 77.65 nM/mg | Activity [14]: Active | Activity [15]: 82.36% | AUC(0-t) at 24 h [16]: 41500 ng·h/mL | Activity [17]: Active | Activity [18]: Active | Activity [19]: 27.65 U/ml | Activity [20]: 49.35 mg/dL | half-life [21]: 4.92 h | Activity [22]: 29.73 U/L | Drug recovery [23]: 97.4% | Activity [24]: Non-toxic | Activity [25]: 12.7 mg/dL | Activity [26]: Active | Activity [27]: Active | Drug recovery [28]: 98% | Activity [29]: inactive

From ChEMBL document CHEMBL6074653, “Reversal of insulin resistance to combat type 2 diabetes mellitus by newer thiazolidinedione's in fructose induced insulin resistant rats” (Eur J Med Chem, 2024)
